Experimental data from US10669272B2, “Substituted naphthyridinone compounds useful as T cell activators” (BRISTOL-MYERS SQUIBB COMPANY, priority 2018, dated 2020).
Counter-ions that a name gives are not always drawn. Like-named read-outs stand apart in the source and are kept apart here.

What was measured:
human DGKζ = target: T1, human DGKζ (Homo sapiens, UniProt Q13574); test: DGKζ LIPGLO assay (extruded liposome substrate), in vitro DGK inhibition; assay type: biochemical; conditions: read-out: DGKz LIPGLO IC50
T1 construct: TVMV protease cleavage site (C); Hexa-His (C); made in house; host or cells: Sf9 insect cells (baculovirus, Bac-to-Bac)
T1 sequence (Q13574 with tags, fused parts or gaps isoform Q13574-4): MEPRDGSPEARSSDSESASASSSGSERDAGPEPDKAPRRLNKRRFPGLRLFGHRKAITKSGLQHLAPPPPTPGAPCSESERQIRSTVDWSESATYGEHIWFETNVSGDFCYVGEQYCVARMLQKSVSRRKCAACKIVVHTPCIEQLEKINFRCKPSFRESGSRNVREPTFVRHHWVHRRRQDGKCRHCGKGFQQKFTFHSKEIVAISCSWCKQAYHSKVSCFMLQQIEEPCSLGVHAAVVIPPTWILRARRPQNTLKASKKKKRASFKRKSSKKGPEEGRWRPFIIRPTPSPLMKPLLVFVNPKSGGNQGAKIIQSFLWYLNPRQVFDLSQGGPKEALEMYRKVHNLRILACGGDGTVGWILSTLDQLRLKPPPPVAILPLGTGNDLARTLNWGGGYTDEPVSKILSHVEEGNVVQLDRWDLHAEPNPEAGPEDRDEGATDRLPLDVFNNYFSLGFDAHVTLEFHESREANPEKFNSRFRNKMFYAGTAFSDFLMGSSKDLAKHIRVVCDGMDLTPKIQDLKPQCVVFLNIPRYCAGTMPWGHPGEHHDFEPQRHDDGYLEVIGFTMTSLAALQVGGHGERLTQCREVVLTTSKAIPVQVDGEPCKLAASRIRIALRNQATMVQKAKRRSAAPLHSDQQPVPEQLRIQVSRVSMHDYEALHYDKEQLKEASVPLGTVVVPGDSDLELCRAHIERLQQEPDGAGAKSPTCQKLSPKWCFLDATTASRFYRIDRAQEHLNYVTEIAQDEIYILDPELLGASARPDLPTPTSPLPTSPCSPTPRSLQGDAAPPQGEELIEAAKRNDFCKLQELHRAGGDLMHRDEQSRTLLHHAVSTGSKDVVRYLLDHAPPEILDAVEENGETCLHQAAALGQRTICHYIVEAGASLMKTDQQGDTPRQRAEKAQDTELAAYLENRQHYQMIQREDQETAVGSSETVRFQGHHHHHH

human DGKα = target: T2, human DGKα (Homo sapiens, UniProt P23743); test: DGKα LIPGLO assay (extruded liposome substrate), in vitro DGK inhibition; assay type: biochemical; conditions: read-out: DGKa LIPGLO IC50
T2 construct: TVMV protease cleavage site (C); Hexa-His (C); made in house; host or cells: Sf9 insect cells (baculovirus, Bac-to-Bac)
T2 sequence (P23743 with tags, fused parts or gaps): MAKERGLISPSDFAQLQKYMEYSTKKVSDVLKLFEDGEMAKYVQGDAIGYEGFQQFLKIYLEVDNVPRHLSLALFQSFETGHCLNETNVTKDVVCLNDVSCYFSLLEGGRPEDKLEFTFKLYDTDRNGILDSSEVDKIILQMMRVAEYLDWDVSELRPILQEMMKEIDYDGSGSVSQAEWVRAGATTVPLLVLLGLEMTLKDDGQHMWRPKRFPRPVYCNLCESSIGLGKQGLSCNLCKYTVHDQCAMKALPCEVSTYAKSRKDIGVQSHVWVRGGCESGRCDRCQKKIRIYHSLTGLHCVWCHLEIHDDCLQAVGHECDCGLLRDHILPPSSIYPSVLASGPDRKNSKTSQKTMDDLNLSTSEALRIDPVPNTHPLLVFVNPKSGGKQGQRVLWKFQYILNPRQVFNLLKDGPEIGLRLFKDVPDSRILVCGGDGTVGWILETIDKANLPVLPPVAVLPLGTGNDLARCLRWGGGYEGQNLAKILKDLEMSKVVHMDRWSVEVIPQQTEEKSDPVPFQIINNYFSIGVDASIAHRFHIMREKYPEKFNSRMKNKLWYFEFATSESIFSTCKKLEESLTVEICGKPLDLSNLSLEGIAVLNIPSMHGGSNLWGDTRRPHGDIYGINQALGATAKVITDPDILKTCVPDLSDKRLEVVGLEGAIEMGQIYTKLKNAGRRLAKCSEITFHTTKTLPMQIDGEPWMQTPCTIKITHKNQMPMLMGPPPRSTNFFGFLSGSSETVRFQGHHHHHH

Human venous whole blood = test: Human whole blood IFN-γ assay; assay type: cell-based; conditions: human whole blood, read-out: INFg Whole Blood Normalized Agonist EC50;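 further: blood from healthy donors exposed to compound for 1 h before stimulation with anti-CD3 and anti-CD28 at 1 µg/mL each, IFN-γ quantified in supernatant by AlphaLISA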
Method: Human Whole Blood IFN-γ Assay
Human venous whole blood (22.5 μL per well), obtained from healthy donors, was pre-treated with compounds for one hour at 37° C. in a humidified 95% air/5% CO2 incubator. The blood was stimulated with 2.5 μL anti-human CD3 and anti-CD28 mAb at a final concentration of 1 μg/mL each for 24 hours at 37° C. IFN-γ in the supernatants was measured using AlphLISA kit (Cat # AL217).

[1] = normalized to 3 μM reference compound with anti-CD3 plus anti-CD28 as 100% activation
[2] = Homo sapiens, 24 h, normalized to 3 μM reference compound with anti-CD3 plus anti-CD28 as 100% activation
[3] = anti-CD3 plus anti-CD28, 24 hours, 3 μM reference compound = 100% activation
[4] = Homo sapiens, 24 h, anti-CD3 plus anti-CD28, 24 hours, 3 μM reference compound = 100% activation

Compound | IC50 (human DGKζ; liposome (LIPGLO) assay) [nM] | IC50 (human DGKα; liposome (LIPGLO) assay) [nM] | EC50 (Human venous whole blood; [1]) [nM] | EC50 (Human venous whole blood; [2]) [nM] | IC50 (human DGKζ; DGKζ liposome (LIPGLO) assay) [nM] | IC50 (human DGKα; DGKα liposome (LIPGLO) assay) [nM] | EC50 (Human venous whole blood; [3]) [nM] | EC50 (Human venous whole blood; [4]) [nM]
CC(c1ccc(OC(F)(F)F)c(F)c1)N1C[C@H](C)N(c2cc(=O)n(C)c3ccc(C#N)nc23)C[C@H]1C (single isomer, unassigned) [Example 1269] | 470 | 120 | 540 | – | – | – | – | –
C[C@@H]1CN(c2c(C#N)c(=O)n(C)c3ccc(C#N)nc23)CCN1C(c1ccc(F)cc1)c1ccnc(C(C)(C)C)n1 (stereo partly drawn) [Example 321, 8-((3R)-4-((2-(tert-butyl)pyrimidin-4-yl)(4-fluorophenyl)methyl)-3-methylpiperazin-1-yl)-5-methyl-6-oxo-5,6-dihydro-1,5-naphthyridine-2,7-dicarbonitrile] | 240 | 4300 | – | 950 | – | – | – | –
CC[C@@H]1CN(c2cc(=O)n(C)c3ccc(C#N)nc23)[C@@H](C)CN1Cc1ccc(F)cc1 [Example 1079] | 89 | 28 | – | 650 | – | – | – | –
CC[C@@H]1CN(c2cc(=O)n(C)c3ccc(C#N)nc23)[C@@H](C)CN1C(c1ccc(F)cc1)c1ccc(C(F)(F)F)cn1 (single isomer, unassigned) [Example 1106] | 120 | 270 | 520 | – | – | – | – | –
C[C@@H]1CN(c2cc(=O)n(C)c3ccc(C#N)nc23)[C@@H](C)CN1C(c1ccc(F)cc1)c1ccc(C(F)(F)F)cn1 (single isomer, unassigned) [Example 680] | 2500 | 1200 | – | 480 | – | – | – | –
CC[C@H]1CN(C(c2cccc(F)c2)c2ccc(F)cn2)[C@H](CC)CN1c1cc(=O)n(C)c2ccc(C#N)nc12 (single isomer, unassigned) [Example 1041] | 43 | 36 | – | 230 | – | – | – | –
C[C@@H]1CN(c2cc(=O)n(C)c3ccc(C#N)nc23)[C@@H](C)CN1C(c1ccc(F)cc1)c1c(F)cc(F)cc1F (single isomer, unassigned) [Example 693] | 570 | 2200 | 290 | – | – | – | – | –
COc1cccc(C(c2ccc(F)cc2)N2C[C@H](C)N(c3cc(=O)n(C)c4ccc(C#N)nc34)C[C@H]2C)c1 (single isomer, unassigned) [Example 661] | 1700 | 4100 | 1000 | – | – | – | – | –
C[C@@H]1CN(c2cc(=O)n(C)c3ccc(C#N)nc23)[C@@H](C)CN1C(c1ccc(F)cc1)c1nc(C2CCN(C)CC2)no1 (single isomer, unassigned) [Example 752] | – | – | – | – | 4100 | 1000 | 1700 | –
CC[C@H]1CN(C(c2ccc(F)cc2)c2ccc(C#N)cc2)[C@H](COC)CN1c1cc(=O)n(C)c2ccc(C#N)nc12 (single isomer, unassigned) [Example 1170] | 170 | 760 | – | 230 | – | – | – | –
Cc1ccc(C(c2ccc(F)cc2Cl)N2C[C@H](C)N(c3c(C#N)c(=O)n(C)c4ccc(C#N)nc34)C[C@H]2C)nc1 (stereo partly shown) [Example 832] | – | – | – | – | 2700 | 19000 | 1800 | –
C[C@@H]1CN(c2c(C#N)c(=O)n(C)c3ccc(C#N)nc23)CCN1C(c1ccc(F)cc1)c1cnsc1 (stereo partly shown) [Example 1028] | 7000 | 1500 | – | 2800 | – | – | – | –
C[C@@H]1CN(c2c(C#N)c(=O)n(C)c3ccc(C#N)nc23)CCN1C(c1ccc(F)cc1)c1cocn1 (stereo partly shown) [Example 1023] | – | – | – | – | 13000 | 3600 | 3500 | –
CC[C@@H]1CN(c2cc(=O)n(C)c3ccc(C#N)nc23)[C@@H](C)CN1C(c1ccc(F)cc1)c1ccon1 (single isomer, unassigned) [Example 1114] | 400 | 56 | 100 | – | – | – | – | –
C[C@@H]1CN(c2c(C#N)c(=O)n(C)c3ccc(C#N)nc23)CCN1C(c1ccc(F)cc1)c1nccs1 (single isomer, unassigned) [Example 1024] | 2200 | 440 | – | 1200 | – | – | – | –
C[C@H]1CN(C(c2ccc(F)cc2)c2ccc(F)cc2)[C@H](CN(C)C)CN1c1cc(=O)n(C)c2ccc(C#N)nc12 [Example 1169] | 6200 | 39000 | – | 2300 | – | – | – | –
C[C@@H]1CN(c2cc(=O)n(C)c3ccc(C#N)nc23)[C@@H](C)CN1C(c1ccc(F)cc1)c1nc(C(F)F)no1 (stereo partly shown) [Example 743] | – | – | – | – | 1600 | 120 | – | 420
CC(c1ccc(OC(F)F)cc1)N1C[C@H](C)N(c2c(C#N)c(=O)n(C)c3ccc(C#N)nc23)C[C@H]1C (single isomer, unassigned) [Example 1375] | 890 | 190 | – | 1800 | – | – | – | –
COCCOc1cc(C(C)N2C[C@H](C)N(c3cc(=O)n(C)c4ccc(C#N)nc34)C[C@H]2C)ccc1C#N (single isomer, unassigned) [Example 1321] | 310 | 7500 | – | 3000 | – | – | – | –
COc1ccc(OC(F)(F)F)cc1CN1C[C@H](C)N(c2cc(=O)n(C)c3ccc(C#N)nc23)C[C@H]1C [Example 601] | 7700 | 2100 | – | 3300 | – | – | – | –
C[C@@H]1CN(c2c(C#N)c(=O)n(C)c3ccc(C#N)nc23)[C@@H](C)CN1C(c1ccccc1)c1cc(F)cc(F)c1 (single isomer, unassigned) [Example 814] | – | – | – | – | 1000 | 35000 | 5500 | –
C[C@@H]1CN(c2cc(=O)n(C)c3ccc(C#N)nc23)[C@@H](C)CN1C(c1ccc(F)cc1)c1ncco1 (stereo partly shown) [Example 718] | 4600 | 90 | 830 | – | – | – | – | –
COC(=O)c1cccc(C(C)N2CCN(c3c(C#N)c(=O)n(C)c4ccc(C#N)nc34)C[C@H]2C)c1 (single isomer, unassigned) [Example 982] | – | – | – | – | 1700 | 8100 | – | 20000
CC(c1ccc(C#N)cc1)N1CCN(c2c(C#N)c(=O)n(C)c3ccc(C#N)nc23)C[C@H]1C (stereo partly shown) [Example 954] | – | – | – | – | 6500 | 130 | – | 20000
CC[C@H]1CN(C(c2ccc(F)cc2)c2cccc(C(F)(F)F)n2)[C@H](CC)CN1c1cc(=O)n(C)c2ccc(C#N)nc12 (single isomer, unassigned) [Example 1046] | 54 | 90 | 140 | – | – | – | – | –
Cc1ccc(C(c2ccc(C#N)cc2)N2C[C@H](C)N(c3cc(=O)n(C)c4ccc(C#N)nc34)C[C@H]2C)cc1 (single isomer, unassigned) [Example 310, TFA salt] | 1600 | 1300 | – | 1900 | – | – | – | –
C[C@@H]1CN(c2cc(=O)n(C)c3ccc(C#N)nc23)[C@@H](C)CN1C(c1ccc(F)cc1)c1nc(C2CN(C(=O)OC(C)(C)C)C2)no1 (single isomer, unassigned) [Example 756] | – | – | – | – | 1900 | 190 | 6000 | –
COCC(c1ccc(C(F)(F)F)cn1)N1C[C@H](C)N(c2cc(=O)n(C)c3ccc(C#N)nc23)C[C@H]1C (single isomer, unassigned) [Example 1278] | 400 | 220 | 2000 | – | – | – | – | –
CC(c1cc(C(C)(C)C)on1)N1C[C@H](C)N(c2cc(=O)n(C)c3ccc(C#N)nc23)C[C@H]1C (single isomer, unassigned) [Example 1284] | – | 760 | 2800 | – | – | – | – | –
CC(c1ccc(C(F)(F)F)cc1)N1CCN(c2c(C#N)c(=O)n(C)c3ccc(C#N)nc23)C[C@H]1C (single isomer, unassigned) [Example 961] | – | – | – | – | – | 1500 | 20000 | –
